pIC50: −log10 of the molar value.
Key:
[1] = test system: LGR5 and BMI1 in Panc-1 cells; test: qPCR of stem cell markers LGR5 and BMI1 in Panc-1 cells; type: cell-based, human; settings: 10 μm
Protocol: QPCR: To compare the mRNA levels of BMI1 and LGR5 target genes in Panc-1 cells treated with BCN057 or vehicle. Quantitative PCR (qPCR) was used to measure the expression of the stem cell markers LGR5, and BMI1 which was detected by real-time PCR using the primer pairs listed in Table 1. Total RNA was extracted using TRIzol kit (Invitrogen, CA, USA)
Primers used for qPCR of LGR5 and BMI1 in pancreatic cancer cells Panc-1 treated with 10 μM of BCN057 or vehicle.
Others have implemented BMI1 as a key contributor to chemoresistance and invasiveness which is measurable in Panc-1.

[2] = Solubility in aqueous formulations; type: physicochemical; settings: 30 wt % Captisol (SBE-beta-CD) and 100 mM MSA
Panc-1 cells = test: ATPLite luminescence viability assay on Panc-1 cells; type: cell-based, human
Protocol: Viability Assay. To determine the effects of BCN 057 in comparison and combination with irinotecan, Oxaloplatin and 5Fu, the ATPLite Luminescence Assay System was used according to manufacturer's instructions. On day 1, 3,000 Panc-1 cells per well were seeded in 96-well white, opaque sterile tissue culture treated microplates and incubated for 24 hours in complete medium at 37° C., 5% CO2. On day 2, the media was exchanged with media containing various combinations of 10 uM BCN 057, 25 μM 5-Fu, 75 μM Oxaloplatin, and 50 μM Irinotecan and incubated at 37° C., 5% CO2. On day 3,4, and 5, the ATP Lite Assay was performed according to manufacturer's instructions for the 24, 48, and 72 hr timepoints. Unless otherwise stated, values were represented as a percent of the control which is the vehicle for each drug. No difference was found in viability between any control vehicle.
Statistics. The results are shown by calculating the averages (±Standard deviation) in comparison to untreated controls with the indicated (n). The Percent Viability was calculated by dividing the average of each condition by the average of the untreated control (vehicle). Statistical analysis was performed in excel.
The first example entailed studying the effect of BCN057 in pancreatic cancer cells. Panc-1 cells, a G12D KRAS mutant cell line was treated with BCN057 for 48 hours.
All data points are n=5. Control (ND) received no drug and BCN057 at 2, 5, 10, and 20 μM final concentration. The Percent viability was calculated by dividing the average value for each condition by the average value of the control cells (V) at each time point.
Further, these doses span the concentrations found in plasma during efficacy studies in rodents. Subsequently, microscope images appeared to show cell blebbing and fragmentation shortly after application of BCN057 indicating possible apoptosis. […] Blebbing and cell fragmentation was noted within 20 min of incubation with drug (as shown with the arrows). Cell fragmentation was seen between 20-30 minutes after exposure to the drug.
The anti-apoptotic phenotype of KRAS is associated with significant resistance to chemotherapy. Thus, to examine whether BCN057 enhances cytotoxic chemotherapeutic agents such as 5-Fluorouracil, also known as 5FU, Panc1 cells were pre-treated with 5FU as reported and incubated with BCN057. […] The effect followed a dose dependent response for BCN057 and was consistent over 24, 48 and 72 hrs after BN057 treatment (24 and 48 hrs not shown).
All data points are n=5. Control (ND) received no drugs. Study groups include 5FU (50 μM), 057 (BCN057 at 2, 5, 10, and 20 μM or 5FU+BCN057 (BCN057 at 2, 5, 10, and 20 μM in combination with 5FU at 50 μM). The Percent viability was calculated by dividing the average value for each condition by the average value of the control cells (V) with standard deviation at each time point
Combined chemotherapy and cytotoxicity: Other cytotoxic drugs commonly used in the treatment of pancreatic or colorectal cancer were then examined in similar fashion such as those within FOLFIRINOX such as 5FU, Irinotecan and Oxaliplatin in combination equivalent doses of BCN057 over 24, 48 and 72 hours.
FIG. 6 is a histogram showing the cytotoxicity of Oxaliplatin and Irinotecan, individually or in combination with 5FU and BCN057 on Panc-1 cells. Cells were incubated with Oxaliplatin, Irinotecan and 5FU with concentrations at 10 μM each and BCN057 (057) also at 10 μM with n=4 for all assays.

## COc1ccc2cc(-c3nc4ccc(C)cn4c3NCc3ccco3)c(=O)[nH]c2c1 [BCN057, 3-[(Furan-2-ylmethyl)-amino]-2-(7-methoxy-2-oxo-1,2-dihydro-quinolin-3-yl)-6-methyl-imidazo[1,2-a]pyridin-1-ium]
[1]
  Abundance of LGR5 and BMI1 cell populations: no significant increase in the abundance
[2]
  Solubility: excellent solubility at up to pH 4.1 or higher
Panc-1 cells; 48 hours, increasing doses of BCN057
  Panc1 cells viability: significant decrease in Panc1 cells viability
Panc-1 cells; Homo sapiens, Panc-1, 72 hours post application, 2, 5, 10, 20 μM, Quest Graph IC50 Calculator
  pIC50: 5.88
Panc-1 cells; Panc1, 5FU 50 μM plus BCN057 2-20 μM, 24, 48 and 72 hrs
  Cytotoxicity of combination of 5FU and BCN057: greater cytotoxicity than 5FU alone
Panc-1 cells; Panc-1, 10 μM each, over 72 hrs
  Tumor viability on addition of BCN057 to Oxaliplatin, Irinotecan and 5FU: general trend of decreasing tumor viability
Panc-1 cells; Panc-1, 2-20 μM
  cytotoxicity toward the cells in the dose response curve: potent cytotoxicity toward the cells at all concentrations
Panc-1 cells; Panc-1, 24, 48 and 72 hours, all time points except Irinotecan and oxaliplatin at 72 hours
  Sensitivity to cytotoxic effect of 5FU, Irinotecan and Oxaliplatin in combination with BCN057: statistically significant sensitivity
